Patent US11331393B2, “Renal-homing peptide conjugates and methods of use thereof” (BLAZE BIOSCIENCE, INC., priority 2017, dated 2022)
Ends that are not written are not given here.

System: kidneys
Settings: unlabeled competitor 100 or 2000 nmol co-injected with 2 nmol SEQ ID NO: 4-AF647; 1 hour

KKEEEKKEEEKKEEEKK [SEQ ID NO: 571]
competition with uptake of the peptide of SEQ ID NO: 4 in kidneys: failed to compete
